Measurements from patent US7632807B2, “Cyclosporin alkynes and their utility as pharmaceutical agents” (Albany Molecular Research, Inc., priority 2004, dated 2009).
In brackets after ≈: the same amount, converted by molar mass. Entries after “also recorded” stand apart in the source; their conditions may differ.

Columns and labels:
[1] = test system: concanavalin A-stimulated murine splenocytes; assay: Concanavalin A (ConA)-stimulated murine splenocyte assay; type: cell-based, mouse (BALB/c)
Procedure: Concanavalin A—Stimulated Splenocyte Assay
Male BALB/c mice, at 5 to 7 weeks of age, were sacrificed by CO2 inhalation. Spleens were removed and dissociated by pushing through a nylon cell strainer. The splenocytes were washed in RPMI 1640/5% fetal calf serum (FCS) and pelleted at 400×g. Red blood cells were then lysed by resuspending the cell pellet in ACK lysis buffer (150 mM NH4Cl, 1 mM KHCO3, 0.1 mM EDTA, 3 mL per spleen) for 10 min at room temperature. After pelleting at 400×g, the cells were washed by resuspending in RPMI 1640/5% FCS and repelleting. The cell pellet was resuspended in RPMI 1640/5% FCS and again passed through a cell strainer to remove cell aggregates. The cells were then counted and adjusted to 2×10^6 cells/ml in RPMI 1640/10% FCS/[…] 2-mercaptoethanol. Cell viability was assessed by Trypan blue staining. […] The cells were cultured in a 37° C. CO2 incubator for 2 days and then pulsed with 1 μCi of [^3H]thymidine for 6 hours. Cells were harvested onto filtermats with a TomTec 96 well plate harvester and lysed with H2O. The filtermat and scintillation fluid were sealed in a plastic sleeve. [^3H]thymidine incorporation was measured with a Wallac Trilux plate counter. Initial screens were done at a fixed value of 100 ng/ml test compound. IC50s were calculated from 7 point concentration-response curves using graphPad software.

[2] = literature value (Rich et al. 1990); cited from earlier work

SMILES	immunosuppressive potency compared to cyclosporin A ([1]; FIG. 1, ConA-stimulated murine splenocyte assay)	IC50 ([1]; novel cyclosporin alkyne analogue, ConA-stimulated BALB/c splenocytes, [3H]thymidine incorporation, 7 point concentration-response curves) [µg/mL]	relative immunosuppressive activity, compared to cyclosporin A [2] [%]
C#CC#CC[C@@H](C)[C@@H](O)[C@H]1C(=O)N[C@@H](CC)C(=O)N(C)CC(=O)N(C)[C@@H](CC(C)C)C(=O)N[C@@H](C(C)C)C(=O)N(C)[C@@H](CC(C)C)C(=O)N[C@@H](C)C(=O)N[C@H](C)C(=O)N(C)[C@@H](CC(C)C)C(=O)N(C)[C@@H](CC(C)C)C(=O)N(C)[C@@H](C(C)C)C(=O)N1C [Example 25, cyclosporine diyne]	enhanced or similar potency in immunosuppression; also recorded: two times more potent over cyclosporin A	0.012 (≈ 9.91 nM)	–
CC#CC[C@@H](C)[C@@H](O)[C@H]1C(=O)N[C@@H](CC)C(=O)N(C)CC(=O)N(C)[C@@H](CC(C)C)C(=O)N[C@@H](C(C)C)C(=O)N(C)[C@@H](CC(C)C)C(=O)N[C@@H](C)C(=O)N[C@H](C)C(=O)N(C)[C@@H](CC(C)C)C(=O)N(C)[C@@H](CC(C)C)C(=O)N(C)[C@@H](C(C)C)C(=O)N1C [known cyclosporin alkyne]	–	–	10
